Earlier results in patent US20120183988A1, “INTEIN-BASED F[…]-CIRCUIT FOR VITAMIN D DETECTION” (priority 2009, published 2012).

Details: cited from reference 2 (Haddad and Stamp 1974)

C=C1CC[C@H](O)C/C1=C/C=C1\CCC[C@]2(C)[C@@H]([C@H](C)CCCC(C)(C)O)CC[C@@H]12 [25(OH)D3, 25-hydroxyvitamin D3]
serum half-life: ca. 3 weeks
